From patent publication US5187157A, “Peptide boronic acid inhibitors of trypsin-like proteases” (Du Pont Merck Pharmaceutical Company, priority 1988, dated 1993)

Assays:
rats = settings: Tremoli et al.; cited from earlier work
Human thrombin = biological target: T1, Human thrombin (Homo sapiens, UniProt P00734); experiment: Inhibition of Thrombin (Esterase Activity); assay type: biochemical; settings: inhibitor 5 nM; activity remaining 10 to 20 min after initiation
T1 construct: purchased R.Q.P. Laboratories, South Bend, IN Lot HT102

normal human plasma [1] = experiment: Activated partial thromboplastin times (APTT), blood coagulation in vitro; assay type: biochemical; settings: for Calc. Concentration 2 × APTT: approximate concentration required to increase APTT two fold
Experimental: (§1) The effectiveness of inhibitors in reactions in which they compete with natural substrates for target enzymes is measured in vitro in blood coagulation assays. Two different assays are used, the APTT (activated partial thromboplastin times) and PT (prothrombin times) assays. These assays mimic the blood clotting process in vivo. Blood coagulation occurs through either of two pathways, each consisting of a cascades of zymogen activation steps. The pathways are termed the intrinsic and the extrinsic pathways (see L. Lorand, Methods in Enzymology 45: 31-37 (1976). The intrinsic pathway is initiated by negatively charged surfaces in which plasma kallikrein, factor XII and factor […] are activated and then factors IX and X and prothrombin are activated in calcium dependent steps. Thrombin, the last protease in the cascade, hydrolyses fibrinogen to fibrin which results in clot formation. In the APTT assay, plasma components are activated by exposure to negatively charged surfaces and then clotting times are measured after calcium is added to the system. In the extrinsic pathway, tissue thromboplastin activates factor VII which then activates factor X leading to the activation of thrombin. These events are measured in the prothrombin times assay.
The effect of protease inhibitors on blood coagulation in vitro was determined by measuring their effects on two different clinical parameters, the activated partial thromboplastin times (APTT) and prothrombin times (PT). Reagents for each of these assays were supplied by General Diagnostics, Jessup MD. Stock solutions of inhibitors were prepared in […] HEPES buffer, pH 7.5, containing 0.10 M sodium chloride. For the APTT assay, the inhibitor solution (0.100 mL) was incubated with normal human plasma (0.100 mL) and automated APTT reagent (0.100 mL). After incubation for 5.0 min at 37°, calcium chloride (0.100 mL) was added and the clotting times, measured in seconds, was determined on a fibrameter. The effects of the varying concentrations of inhibitor on blood clotting times compared with the clotting times of controls run in the absence of inhibitor, are shown in Table 3.

normal human plasma [2] = experiment: Prothrombin times (PT), blood coagulation in vitro; assay type: biochemical; settings: for Calc. Concentration 2 × XPT: approximate concentration required to increase PT two fold
Experimental: as §1
For PT assays, inhibitor solutions (0.100 mL) were incubated with normal human plasma (0.100 mL) for 2 min at 37°.

[3] = Stability of Inhibitors in Human Plasma As Measured By APTT; assay type: in vitro ADME; settings: 250 nM in APTT assay
Experimental: The stability of inhibitors in plasma was determined by their ability to inhibit blood coagulation. First, a stock solutions (1.0 μM) of the inhibitors to be tested in 25 mM HEPES buffer, pH 7.5, containing 0.10 M sodium chloride were diluted 50% with normal human plasma. The mixtures were made at 0°, then aliquots (0.200 mL) were removed and incubated for 2 min at 37°. An equal volume of automated APTT reagent was added and clotting times were measured as described in Examples 111-117. The final concentration of inhibitor during the clotting assays was 250 nM. Values for compounds E and F were determined simultaneously with the Control. Values for compounds A, B and C were obtained on a different day.

Sprague Dawley CD Rats = experiment: In Vivo Inhibition of Croton Oil Induced Inflammation (ear swelling); settings: Table 14; dose=100 μg, essentially the same conditions
Experimental: Two solutions were prepared, the first consisting of 5% croton oil, a known inflammatory agent, in an acetone carrier (Croton Solution) and the second consisting of 5% croton oil in an acetone carrier to which 10 mg/mL of a compound of the invention was added (Compound Solution). The Croton Solution (10 μL), or alternatively the Compound Solution (10 μL), was applied to the right ear of each animal (Sprague Dawley CD Rats, 130-140 g, supplied by Charles River Labs, Inc., Wilmington, MA). […] "SE" denotes standard error.

[4] = Stability of Inhibitors in Buffer (thrombin assay); settings: for Percent Thrombin activity: 1.0 μM; for stability in phosphate buffer at pH 7.5 (inhibitory activity): phosphate buffer pH 7.5
Experimental: Samples of the inhibitors are removed at increasing time intervals and their ability to delay clotting is measured at each interval.
Inhibitors, each at a concentration of 1.0 μM, were incubated at room temperature in 0.20 M sodium phosphate buffer, pH 7.5, containing 0.20 M sodium chloride and 0.10% PEG.

thrombin = settings: literature; cited from earlier work
plasma [5] = settings: at 1 μM; Green et al.; cited from earlier work
plasma [6] = experiment: Heparin effect on plasma clotting times; assay type: biochemical; settings: assuming molecular weight 15,000 and 150 units/mg
plasma [7] = settings: 0.2-0.4 units of heparin per mL of plasma; cited from earlier work
rabbit = rabbit model; Shaw et al.; cited from earlier work
[8] = incubation in human plasma 0.5 h
[9] = incubation in human plasma 24 h

**Q.** For `CC(C)(C)OC(=O)N[C@H](Cc1ccccc1)C(=O)N1CCC[C@H]1C(=O)N[C@H](C=O)CCCNC(=N)N` [Boc-(D)Phe-Pro-Arg-H], which “size of venous thrombosis” value (rats) is on record?
**A.** reduces the size of venous thrombosis

**Q.** Which results are given for `CC(C)(C)OC(=O)NC(Cc1ccccc1)C(=O)N1CCCC1C(=O)NC(CCCN=C(N)N)B1OC2CC3CC(C3(C)C)C2(C)O1.O=S(=O)(O)c1ccccc1` (stereo not drawn) [A, Boc-(D)Phe-Pro-boroArg-C10 H16.benzene sulfonic acid]?
**A.** Percent Activity (Human thrombin): 3%; Calc. Concentration 2 × APTT (normal human plasma [1]): 230 nM; Activated Partial Thromboplastin Times (normal human plasma [1]; inhibitor 125 nM): 36.6 s; Activated Partial Thromboplastin Times (normal human plasma [1]; inhibitor 200 nM): 40.2 s; Activated Partial Thromboplastin Times (normal human plasma [1]; inhibitor 250 nM): 81.2 s; Activated Partial Thromboplastin Times (normal human plasma [1]; inhibitor 300 nM): 113.3 s; Activated Partial Thromboplastin Times (normal human plasma [1]; inhibitor 350 nM): 128.7 s; Calc. Concentration 2 × XPT (normal human plasma [2]): 800 nM; Prothrombin Times (normal human plasma [2]; inhibitor 12.5 nM): 16.4 s; Prothrombin Times (normal human plasma [2]; inhibitor 250 nM): 17.1 s; Prothrombin Times (normal human plasma [2]; inhibitor 500 nM): 21.5 s; Prothrombin Times (normal human plasma [2]; inhibitor 750 nM): 26.7 s; Prothrombin Times (normal human plasma [2]; inhibitor 875 nM): 40.1 s; Prothrombin Times (normal human plasma [2]; inhibitor 1000 nM): > 200 s; Clotting Time ([3]; incubation in human plasma 0 h): 81.2 s; Clotting Time [3, 8]: 84.7 s; Clotting Time ([3]; incubation in human plasma 1 h): 79.7 s; Clotting Time ([3]; incubation in human plasma 2 h): 86.7 s; Clotting Time ([3]; incubation in human plasma 4 h): 98.2 s; Clotting Time [3, 9]: 92.2 s; Percent Inhibition (Sprague Dawley CD Rats): 59%; Percent Thrombin activity ([4]; 0 hr in 0.20 M sodium phosphate buffer pH 7.5, room temperature): 3.3%; Percent Thrombin activity ([4]; 6.5 hr in 0.20 M sodium phosphate buffer pH 7.5, room temperature): 1.6%; Percent Thrombin activity ([4]; 24 hr in 0.20 M sodium phosphate buffer pH 7.5, room temperature): 0.8%; stability in phosphate buffer at pH 7.5 (inhibitory activity) [4]: little loss of inhibitor activity

**Q.** With `N=C(N)NCCC[C@@H](C=O)NC(=O)[C@@H]1CCCN1C(=O)[C@H](N)Cc1ccccc1` [H-(D)Phe-Pro-Arg-H] as the compound, how does the Ki (thrombin) read?
**A.** 75 nM

**Q.** With `CC1CNc2c(cccc2S(=O)(=O)N[C@@H](CCCNC(=N)N)C(=O)N2CC[C@@H](C)C[C@@H]2C(=O)O)C1` (stereo partly drawn) [(2R,4R)-4-methyl-1[N^2 -{(3-methyl-1,2,3,4-tetrahydro-8-quinolinyl)sulfonyl}-L-arginyl]-2-piperid inecarboxylic acid] as the compound, how does the “increase of prothrombin times of plasma” value (plasma [5]) read?
**A.** 2 fold

**Q.** Which results are given for heparin?
**A.** molar concentration increasing clotting times 2-2.5 fold (plasma [6]): 86 to 170 nM; increase of clotting times (plasma [7]): 2-2.5 fold

**Q.** What does the source list for `Br.CC(C)(C)OC(=O)NC(Cc1ccccc1)C(=O)N1CCCC1C(=O)NC(CCCSC(=N)N)B1OC2CC3CC(C3(C)C)C2(C)O1` (stereo not drawn) [C, Boc-(D)Phe-Pro-boroIrg-C10 H16.HBr]?
**A.** Percent Activity (Human thrombin): 3%; Calc. Concentration 2 × APTT (normal human plasma [1]): 200 nM; Activated Partial Thromboplastin Times (normal human plasma [1]; inhibitor 62.5 nM): 39.2 s; Activated Partial Thromboplastin Times (normal human plasma [1]; inhibitor 125 nM): 46.9 s; Activated Partial Thromboplastin Times (normal human plasma [1]; inhibitor 200 nM): 67 s; Activated Partial Thromboplastin Times (normal human plasma [1]; inhibitor 250 nM): 160 s; Activated Partial Thromboplastin Times (normal human plasma [1]; inhibitor 300 nM): 197.8 s; Activated Partial Thromboplastin Times (normal human plasma [1]; inhibitor 350 nM): 301.8 s; Calc. Concentration 2 × XPT (normal human plasma [2]): 650 nM; Prothrombin Times (normal human plasma [2]; inhibitor 12.5 nM): 16.8 s; Prothrombin Times (normal human plasma [2]; inhibitor 250 nM): 20.8 s; Prothrombin Times (normal human plasma [2]; inhibitor 500 nM): 27.2 s; Prothrombin Times (normal human plasma [2]; inhibitor 750 nM): 44 s; Prothrombin Times (normal human plasma [2]; inhibitor 1000 nM): 152.7 s; Clotting Time ([3]; incubation in human plasma 0 h): 203.2 s; Clotting Time [3, 8]: 207.2 s; Clotting Time ([3]; incubation in human plasma 1 h): 214.2 s; Clotting Time ([3]; incubation in human plasma 2 h): 203.7 s; Clotting Time ([3]; incubation in human plasma 4 h): 209.7 s; Clotting Time [3, 9]: 248.7 s; Percent Inhibition (Sprague Dawley CD Rats): 76%; stability in phosphate buffer at pH 7.5 (inhibitory activity) [4]: little loss of inhibitor activity

**Q.** Which “prevention of coronary thrombosis” value (rabbit) does the source give for `N=C(N)NCCC[C@H](NC(=O)[C@@H]1CCCN1C(=O)[C@H](N)Cc1ccccc1)C(=O)CCl` [H-(D)Phe-Pro-ArgCH2 Cl] here?
**A.** effective in the prevention of coronary thrombosis
